Experimental findings from US10028960B2, “Pyrimidine compounds as JAK kinase inhibitors” (THERAVANCE BIOPHARMA R&D IP, LLC, priority 2016, dated 2018) are described below.

For one test, the target named is JAK1 (Homo sapiens (Human), UniProt P23458). Kind of test: LanthaScreen JAK biochemical assay, JAK1. The method, then:
(§1) A panel of four LanthaScreen JAK biochemical assays (JAK1, 2, 3 and Tyk2) were carried in a common kinase reaction buffer (50 mM HEPES, pH 7.5, 0.01% Brij-35, 10 mM MgCl2, and 1 mM EGTA). Recombinant GST-tagged JAK enzymes and a GFP-tagged STAT1 peptide substrate were obtained from Life Technologies.
(In general: Time-resolved FRET reads energy transfer from a long-lived donor to a nearby acceptor.)

The target of the next test is JAK3 (Homo sapiens (Human), UniProt P52333). As to the kind of experiment: LanthaScreen JAK biochemical assay, JAK3. The settings on record: for Ki: read-out: JAK 3 (pKi) (converted). The procedure:
as §1

For a further test, the target named is JAK2 (Homo sapiens (Human), UniProt O60674). As to the kind of experiment: LanthaScreen JAK biochemical assay, JAK2. The following applies: for Ki: read-out: JAK 2 (pKi) (converted). The procedure: as §1
Sequence of JAK2 (O60674 whole entry): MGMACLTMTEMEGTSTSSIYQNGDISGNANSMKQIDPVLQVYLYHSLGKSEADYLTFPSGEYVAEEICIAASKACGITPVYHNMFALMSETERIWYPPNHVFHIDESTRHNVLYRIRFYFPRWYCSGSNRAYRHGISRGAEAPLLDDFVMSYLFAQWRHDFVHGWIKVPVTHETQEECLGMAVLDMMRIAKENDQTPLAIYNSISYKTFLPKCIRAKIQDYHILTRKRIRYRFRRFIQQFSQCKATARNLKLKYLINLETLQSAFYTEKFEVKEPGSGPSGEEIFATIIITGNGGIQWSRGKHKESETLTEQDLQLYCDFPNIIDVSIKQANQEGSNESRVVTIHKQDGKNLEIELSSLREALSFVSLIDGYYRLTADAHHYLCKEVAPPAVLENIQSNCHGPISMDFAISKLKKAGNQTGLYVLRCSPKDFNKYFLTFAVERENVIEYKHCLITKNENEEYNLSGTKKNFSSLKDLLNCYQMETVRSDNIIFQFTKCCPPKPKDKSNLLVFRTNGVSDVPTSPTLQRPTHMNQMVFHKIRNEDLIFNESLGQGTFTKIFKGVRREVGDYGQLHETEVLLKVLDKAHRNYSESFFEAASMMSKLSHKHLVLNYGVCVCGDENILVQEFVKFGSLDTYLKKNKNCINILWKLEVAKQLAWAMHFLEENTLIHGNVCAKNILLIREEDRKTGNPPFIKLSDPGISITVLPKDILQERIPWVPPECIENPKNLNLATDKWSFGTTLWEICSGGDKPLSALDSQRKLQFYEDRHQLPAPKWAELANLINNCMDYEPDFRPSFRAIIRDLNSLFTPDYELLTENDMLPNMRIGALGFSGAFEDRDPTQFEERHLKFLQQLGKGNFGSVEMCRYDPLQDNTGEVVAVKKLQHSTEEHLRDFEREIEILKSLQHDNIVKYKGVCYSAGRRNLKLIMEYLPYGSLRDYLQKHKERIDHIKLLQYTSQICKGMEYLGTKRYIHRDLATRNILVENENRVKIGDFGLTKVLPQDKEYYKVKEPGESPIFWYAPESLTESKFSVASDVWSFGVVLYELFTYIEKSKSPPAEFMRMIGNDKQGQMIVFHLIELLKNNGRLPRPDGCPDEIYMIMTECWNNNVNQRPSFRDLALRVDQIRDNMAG
The target of another test is Tyk2 (Homo sapiens (Human), UniProt P29597). As to the kind of experiment: LanthaScreen JAK biochemical assay, Tyk2. The settings on record: for Ki: read-out: Tyk 2 (pKi) (converted). The method, then: as §1
Sequence of Tyk2 (P29597 whole entry): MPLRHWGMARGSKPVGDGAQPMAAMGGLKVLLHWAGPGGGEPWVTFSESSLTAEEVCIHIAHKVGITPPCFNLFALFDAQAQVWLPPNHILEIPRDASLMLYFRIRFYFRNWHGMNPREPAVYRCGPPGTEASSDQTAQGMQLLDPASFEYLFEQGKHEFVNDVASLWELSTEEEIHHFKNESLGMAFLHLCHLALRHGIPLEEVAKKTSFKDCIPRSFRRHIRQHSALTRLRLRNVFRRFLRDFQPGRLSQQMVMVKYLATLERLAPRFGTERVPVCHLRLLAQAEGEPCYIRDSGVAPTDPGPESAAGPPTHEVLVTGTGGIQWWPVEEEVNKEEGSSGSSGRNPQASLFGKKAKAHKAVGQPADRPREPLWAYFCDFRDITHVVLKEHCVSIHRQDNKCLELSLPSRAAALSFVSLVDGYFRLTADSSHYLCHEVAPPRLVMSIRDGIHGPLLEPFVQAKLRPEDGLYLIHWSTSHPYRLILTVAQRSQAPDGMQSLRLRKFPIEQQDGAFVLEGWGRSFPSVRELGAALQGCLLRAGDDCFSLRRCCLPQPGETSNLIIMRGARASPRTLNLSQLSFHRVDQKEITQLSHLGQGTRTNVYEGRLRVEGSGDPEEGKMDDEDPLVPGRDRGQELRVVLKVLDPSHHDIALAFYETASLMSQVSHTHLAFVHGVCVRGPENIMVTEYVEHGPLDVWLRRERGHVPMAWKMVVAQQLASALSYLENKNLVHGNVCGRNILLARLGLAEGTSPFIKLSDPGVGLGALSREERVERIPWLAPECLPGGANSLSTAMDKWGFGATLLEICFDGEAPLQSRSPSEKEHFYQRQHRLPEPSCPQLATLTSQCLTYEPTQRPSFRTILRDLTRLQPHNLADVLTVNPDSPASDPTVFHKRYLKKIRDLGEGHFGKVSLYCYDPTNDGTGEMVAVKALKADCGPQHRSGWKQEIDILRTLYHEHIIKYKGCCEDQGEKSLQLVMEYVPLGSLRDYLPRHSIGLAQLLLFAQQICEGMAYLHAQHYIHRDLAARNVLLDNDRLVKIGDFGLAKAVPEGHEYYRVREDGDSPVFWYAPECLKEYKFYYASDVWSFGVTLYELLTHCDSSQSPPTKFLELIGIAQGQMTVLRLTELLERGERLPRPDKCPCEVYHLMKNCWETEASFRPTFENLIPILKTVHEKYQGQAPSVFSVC
The test system of test [1] is IL-13 induced STAT6 phosphorylation in HT-29 human colorectal adenocarcinoma cells. Kind of test: Cellular JAK potency assay: inhibition of IL-13 induced STAT6 phosphorylation. The following applies: IL-13 induced STAT6 phosphorylation, HT-29 cells; for IC50: Homo sapiens, read-out: HT-29 (pIC50) (converted). The class given is cell-based. The procedure:
The potency of test compounds for inhibition of the JAK-dependent cytokine interleuken-13 (IL-13) was assessed by measuring IL-13 (IL-13, R&D Systems) induced STAT6 phosphorylation in HT-29 human colorectal adenocarcinoma cells (ATCC).
The anti-STAT6 antibody (Cell Signaling Technologies) was conjugated to AlphaScreen acceptor beads (Perkin Elmer), while the anti-pSTAT6 (pTyr641) antibody (Cell Signaling Technologies) was biotinylated using EZ-Link Sulfo-NHS-Biotin (Thermo Scientific).
HT-29 cells were grown at 37° C. in a 5% CO2 humidified incubator in McCoy's 5a Modified medium (ATCC) supplemented with 10% FBS (Hyclone), 100 U/mL penicillin, 100 μg/mL streptomycin (Life Technologies), and 2 mM GlutaMAX (Life Technologies). On day 1 of the assay, cells were seeded at a 7,500 cells/well density in white poly-D-lysine-coated 384-well plates (Corning) with 25 μL medium, and were allowed to adhere overnight in the incubator. On day 2 of the assay, the medium was removed and replaced with 12 μL of assay buffer (Hank's Balanced Salt Solution/HBSS, 25 mM HEPES, and 1 mg/ml bovine serum albumin/BSA) containing dose-responses of test compounds. Compounds were serially diluted in DMSO and then diluted another 1000-fold in media to bring the final DMSO concentration to 0.1%. Cells were incubated with test compounds at 37° C. for 1 h, and followed by the addition of 12 μL of pre-warmed IL-13 (12 ng/ml in assay buffer) for stimulation. After incubating at 37° C. for 30 min, the assay buffer (containing compound and IL-13) was removed, and 10 μL of cell lysis buffer (25 mM HEPES, 0.1% SDS, 1% NP-40, 5 mM MgCl2, 1.3 mM EDTA, 1 mM EGTA, and supplement with Complete Ultra mini protease inhibitors and PhosSTOP from Roche Diagnostics). The plates were shaken at ambient temperature for 30 min before the addition of detection reagents. A mixture of biotin-anti-pSTAT6 and anti-STAT6 conjugated acceptor beads was added first and incubated at ambient temperature for 2 h, followed by the addition of streptavidin conjugated donor beads (Perkin Elmer). After a minimum of 2 h incubation, the assay plates were read on the EnVision plate reader.
Results were expressed as the negative logarithm of the IC50 value, pIC50.

Setting [2] is: read-out: JAK 1 (pKi) (converted).

Read-outs that look alike come from different tables or passages of the source.

Sequence of JAK1 (P23458 whole entry): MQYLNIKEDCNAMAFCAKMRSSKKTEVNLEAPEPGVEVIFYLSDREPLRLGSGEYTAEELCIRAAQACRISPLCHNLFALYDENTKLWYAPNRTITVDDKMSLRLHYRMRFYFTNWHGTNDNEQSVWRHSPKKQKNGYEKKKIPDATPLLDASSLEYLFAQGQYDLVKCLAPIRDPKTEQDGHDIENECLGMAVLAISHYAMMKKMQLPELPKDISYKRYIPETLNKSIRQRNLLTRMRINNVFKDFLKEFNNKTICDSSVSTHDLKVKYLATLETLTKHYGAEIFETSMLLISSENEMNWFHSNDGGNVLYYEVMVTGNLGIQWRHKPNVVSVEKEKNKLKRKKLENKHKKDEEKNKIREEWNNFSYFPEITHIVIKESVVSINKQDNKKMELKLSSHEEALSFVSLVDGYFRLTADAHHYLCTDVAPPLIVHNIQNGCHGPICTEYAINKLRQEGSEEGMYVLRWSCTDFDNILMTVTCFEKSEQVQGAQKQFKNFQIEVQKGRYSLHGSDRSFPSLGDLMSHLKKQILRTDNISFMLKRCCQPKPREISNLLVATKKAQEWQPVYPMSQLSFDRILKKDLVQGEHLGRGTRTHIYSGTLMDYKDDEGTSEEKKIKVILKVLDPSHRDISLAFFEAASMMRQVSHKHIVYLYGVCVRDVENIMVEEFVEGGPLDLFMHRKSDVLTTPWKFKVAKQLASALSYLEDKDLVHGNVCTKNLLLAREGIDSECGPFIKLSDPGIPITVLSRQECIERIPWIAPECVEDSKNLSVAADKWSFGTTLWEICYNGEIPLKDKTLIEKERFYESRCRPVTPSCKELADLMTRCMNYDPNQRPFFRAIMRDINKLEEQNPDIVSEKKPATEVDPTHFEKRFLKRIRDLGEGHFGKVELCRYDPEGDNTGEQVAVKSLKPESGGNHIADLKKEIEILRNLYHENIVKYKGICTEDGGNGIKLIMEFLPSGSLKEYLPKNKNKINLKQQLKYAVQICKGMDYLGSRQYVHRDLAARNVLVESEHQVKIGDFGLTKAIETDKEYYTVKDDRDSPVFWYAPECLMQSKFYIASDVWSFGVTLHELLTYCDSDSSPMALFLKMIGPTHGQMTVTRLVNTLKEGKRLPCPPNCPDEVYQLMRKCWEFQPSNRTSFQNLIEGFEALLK
Sequence of JAK3 (P52333 whole entry): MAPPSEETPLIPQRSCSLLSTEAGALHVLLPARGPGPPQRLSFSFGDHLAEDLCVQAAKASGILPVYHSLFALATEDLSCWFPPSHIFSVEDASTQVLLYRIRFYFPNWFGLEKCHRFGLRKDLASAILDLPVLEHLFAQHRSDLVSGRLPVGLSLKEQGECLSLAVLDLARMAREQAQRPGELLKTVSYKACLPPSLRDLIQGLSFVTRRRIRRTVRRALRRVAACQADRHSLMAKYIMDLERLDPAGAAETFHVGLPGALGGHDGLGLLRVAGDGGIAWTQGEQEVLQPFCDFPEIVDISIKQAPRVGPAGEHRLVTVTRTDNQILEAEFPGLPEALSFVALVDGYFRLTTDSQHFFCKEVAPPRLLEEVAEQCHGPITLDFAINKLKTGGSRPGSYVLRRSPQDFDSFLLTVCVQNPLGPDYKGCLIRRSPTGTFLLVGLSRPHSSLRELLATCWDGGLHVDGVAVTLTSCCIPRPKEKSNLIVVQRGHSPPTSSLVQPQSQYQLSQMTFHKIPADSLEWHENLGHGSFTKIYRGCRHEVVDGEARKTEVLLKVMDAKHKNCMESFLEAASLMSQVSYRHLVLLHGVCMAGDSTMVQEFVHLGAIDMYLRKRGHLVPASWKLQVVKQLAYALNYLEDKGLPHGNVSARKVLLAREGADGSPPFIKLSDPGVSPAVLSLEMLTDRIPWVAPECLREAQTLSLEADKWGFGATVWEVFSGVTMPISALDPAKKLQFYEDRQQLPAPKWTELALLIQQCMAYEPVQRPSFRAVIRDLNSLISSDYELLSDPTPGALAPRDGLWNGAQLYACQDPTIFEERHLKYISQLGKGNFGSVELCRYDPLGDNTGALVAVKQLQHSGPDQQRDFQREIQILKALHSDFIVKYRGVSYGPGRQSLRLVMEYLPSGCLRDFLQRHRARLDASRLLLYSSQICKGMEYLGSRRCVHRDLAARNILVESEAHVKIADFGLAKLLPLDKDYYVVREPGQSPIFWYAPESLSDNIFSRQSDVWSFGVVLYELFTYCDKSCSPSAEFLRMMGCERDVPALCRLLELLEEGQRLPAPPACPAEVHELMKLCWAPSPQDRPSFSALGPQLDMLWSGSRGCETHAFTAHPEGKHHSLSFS

With `COc1cc(Nc2cc(CO)[nH]n2)nc(N(C)[C@@H]2C[C@H]3CCC[C@@H](C2)N3S(=O)(=O)N2CCCC2)n1` [Example 1-13, (3-((6-methoxy-2-(methyl((1R,3s,5S)-9-(pyrrolidin-1-ylsulfonyl)-9-azabicyclo[3.3.1]nonan-3-yl)amino)pyrimidin-4-yl)amino)-1H-pyrazol-5-yl)methanol], the “JAK 1 (pKi)” value at JAK1 is “A (A represents a pKi value≥10 (Ki≤0.1 nM))”. The “JAK 3 (pKi)” value on JAK3 was “B (B represents a pKi value between 9 and 10 (Ki between 1 nM and 0.1 nM))”. For the same compound, the “JAK 2 (pKi)” value at JAK2 was “A (A represents a pKi value≥10 (Ki≤0.1 nM))”. Besides, the “Tyk 2 (pKi)” value at Tyk2 was “B (B represents a pKi value between 9 and 10 (Ki between 1 nM and 0.1 nM))”. In addition, the “HT-29 (pIC50)” value in test [1] is on record as “A (A represents a pIC50 value≥7.5 (IC50≤32 nM))”.

Turning to `COc1cc(Nc2cc(CO)[nH]n2)nc(N(C)[C@@H]2C[C@H]3CCC[C@@H](C2)N3S(=O)(=O)C2CC2)n1` [Example 1-14, (3-((2-(((1R,3s,5S)-9-(cyclopropylsulfonyl)-9-azabicyclo[3.3.1]nonan-3-yl)(methyl)amino)-6-methoxypyrimidin-4-yl)amino)-1H-pyrazol-5-yl)methanol], the “JAK 1 (pKi)” value on JAK1 was “B (B represents a pKi value between 9 and 10 (Ki between 1 nM and 0.1 nM))”. Besides, the “JAK 3 (pKi)” value on JAK3 was “C (C represents a pKi value between 8 and 9 (Ki between 10 nM and 1 nM))”. For the same compound, the “JAK 2 (pKi)” value at JAK2 is on record as “A (A represents a pKi value≥10 (Ki≤0.1 nM))”. For the same compound, the “Tyk 2 (pKi)” value at Tyk2 is “B (B represents a pKi value between 9 and 10 (Ki between 1 nM and 0.1 nM))”. Further, the “HT-29 (pIC50)” value in test [1] is given as “A (A represents a pIC50 value≥7.5 (IC50≤32 nM))”.

With `COc1cc(Nc2cc(CO)[nH]n2)nc(N(C)[C@@H]2C[C@H]3CCC[C@@H](C2)N3S(=O)(=O)c2cccnc2)n1` [Example 1-15, (3-((6-methoxy-2-(methyl((1R,3s,5S)-9-(pyridin-3-ylsulfonyl)-9-azabicyclo[3.3.1]nonan-3-yl)amino)pyrimidin-4-yl)amino)-1H-pyrazol-5-yl)methanol], the “JAK 1 (pKi)” value at JAK1 was “B (B represents a pKi value between 9 and 10 (Ki between 1 nM and 0.1 nM))”. On JAK3, the “JAK 3 (pKi)” value is “C (C represents a pKi value between 8 and 9 (Ki between 10 nM and 1 nM))”. Besides, the “JAK 2 (pKi)” value at JAK2 is given as “A (A represents a pKi value≥10 (Ki≤0.1 nM))”. Besides, on Tyk2, the “Tyk 2 (pKi)” value is “B (B represents a pKi value between 9 and 10 (Ki between 1 nM and 0.1 nM))”. Besides, the “HT-29 (pIC50)” value in test [1] is “B (B represents a pIC50 value between 6.7 and 7.5 (IC50 between 200 nM and 32 nM))”.

Regarding `COc1cc(Nc2cc(CO)[nH]n2)nc(N(C)[C@@H]2C[C@H]3CCC[C@@H](C2)N3S(=O)(=O)c2ccccc2)n1` [Example 1-16, (3-((6-methoxy-2-(methyl((1R,3s,5S)-9-(phenylsulfonyl)-9-azabicyclo[3.3.1]nonan-3-yl)amino)pyrimidin-4-yl)amino)-1H-pyrazol-5-yl)methanol], on JAK1, the “JAK 1 (pKi)” value is “B (B represents a pKi value between 9 and 10 (Ki between 1 nM and 0.1 nM))”. In addition, the “JAK 3 (pKi)” value at JAK3 is “C (C represents a pKi value between 8 and 9 (Ki between 10 nM and 1 nM))”. Moreover, the “JAK 2 (pKi)” value at JAK2 is “B (B represents a pKi value between 9 and 10 (Ki between 1 nM and 0.1 nM))”. In addition, the “Tyk 2 (pKi)” value on Tyk2 was “B (B represents a pKi value between 9 and 10 (Ki between 1 nM and 0.1 nM))”. Moreover, the “HT-29 (pIC50)” value in test [1] was “B (B represents a pIC50 value between 6.7 and 7.5 (IC50 between 200 nM and 32 nM))”.

In the case of `COc1cc(Nc2cc(CO)[nH]n2)nc(N(C)[C@@H]2C[C@H]3CCC[C@@H](C2)N3S(=O)(=O)N2CCC2)n1` [Example 1-17, (3-((2-(((1R,3s,5S)-9-(azetidin-1-ylsulfonyl)-9-azabicyclo[3.3.1]nonan-3-yl)(methyl)amino)-6-methoxypyrimidin-4-yl)amino)-1H-pyrazol-5-yl)methanol], the “JAK 1 (pKi)” value on JAK1 is “B (B represents a pKi value between 9 and 10 (Ki between 1 nM and 0.1 nM))”. The “JAK 3 (pKi)” value at JAK3 is “C (C represents a pKi value between 8 and 9 (Ki between 10 nM and 1 nM))”. Also, the “JAK 2 (pKi)” value on JAK2 is recorded as “A (A represents a pKi value≥10 (Ki≤0.1 nM))”. Further, the “Tyk 2 (pKi)” value at Tyk2 was “B (B represents a pKi value between 9 and 10 (Ki between 1 nM and 0.1 nM))”. Also, the “HT-29 (pIC50)” value in test [1] is “A (A represents a pIC50 value≥7.5 (IC50≤32 nM))”.

For `COc1cc(Nc2cc(CO)[nH]n2)nc(N(C)[C@@H]2C[C@H]3CCC[C@@H](C2)N3CC2(C#N)CC2)n1` [Example 2-6, 1-(((1R,3s,5S)-3-((4-((5-(hydroxymethyl)-1H-pyrazol-3-yl)amino)-6-methoxypyrimidin-2-yl)(methyl)amino)-9-azabicyclo[3.3.1]nonan-9-yl)methyl)cyclopropane-1-carbonitrile], the “JAK 1 (pKi)” value at JAK1 was “B (B represents a pKi value between 9 and 10 (Ki between 1 nM and 0.1 nM))”. Also, the “JAK 3 (pKi)” value at JAK3 is “C (C represents a pKi value between 8 and 9 (Ki between 10 nM and 1 nM))”. In addition, the “JAK 2 (pKi)” value on JAK2 is “B (B represents a pKi value between 9 and 10 (Ki between 1 nM and 0.1 nM))”. For the same compound, the “Tyk 2 (pKi)” value at Tyk2 was “B (B represents a pKi value between 9 and 10 (Ki between 1 nM and 0.1 nM))”.

Regarding `COc1cc(Nc2cc(CO)[nH]n2)nc(N(C)[C@@H]2C[C@H]3CC[C@@H](C2)N3CCC#N)n1` [Example 5, 3-((1R,3s,5S)-3-((4-((5-(hydroxymethyl)-1H-pyrazol-3-yl)amino)-6-methoxypyrimidin-2-yl)(methyl)amino)-8-azabicyclo[3.2.1]octan-8-yl)-propanenitrile], the Ki at JAK1 is 0.1 to 1 nM; at JAK3 it was 10 to 31.6 nM; at JAK2 it was 0.1 to 1 nM; on Tyk2 it was 1 to 10 nM. Also, in test [1], the IC50 is 200 to 1000 nM.

For `COc1cc(Nc2cc(CO)[nH]n2)nc(N(C)[C@@H]2C[C@H]3CCC[C@@H](C2)N3Cc2cncc(C#N)c2)n1` [Example 7, 5-(((1R,3s,5S)-3-((4-((5-(hydroxymethyl)-1H-pyrazol-3-yl)amino)-6-methoxypyrimidin-2-yl)(methyl)amino)-9-azabicyclo[3.3.1]nonan-9-yl)methyl)nicotinonitrile], the “JAK 1 (pKi)” value at JAK1 is listed as “A (A represents a pKi value≥10 (Ki≤0.1 nM))”. The Ki at JAK3 and on Tyk2 was 0.1 to 1 nM each time. Also, at JAK2, the “JAK 2 (pKi)” value is recorded as “A (A represents a pKi value≥10 (Ki≤0.1 nM))”. The IC50 in test [1] is 31.6 to 200 nM.

On to `COc1cc(Nc2cc(CO)[nH]n2)nc(N(C)[C@@H]2C[C@H]3CCC[C@@H](C2)N3C(=O)OCC(C)C)n1` [Example 8, Isobutyl (1R,3s,5S)-3-((4-((5-(hydroxymethyl)-1H-pyrazol-3-yl)amino)-6-methoxypyrimidin-2-yl)(methyl)amino)-9-azabicyclo[3.3.1]nonane-9-carboxylate], for which the Ki on JAK1 (setting [2]) was 0.1 to 1 nM; on JAK3 it was 1 to 10 nM; at JAK2, 0.1 to 1 nM; on Tyk2 it was 0.1 to 1 nM. For the same compound, the IC50 in test [1] was 31.6 to 200 nM.

For `COc1cc(Nc2cc(CO)[nH]n2)nc(N(C)[C@@H]2C[C@H]3CCC[C@@H](C2)N3C(=O)C(F)F)n1` [Example 9, 2,2-difluoro-1-((1R,3s,5S)-3-((4-((5-(hydroxymethyl)-1H-pyrazol-3-yl)amino)-6-methoxypyrimidin-2-yl)(methyl)amino)-9-azabicyclo[3.3.1]nonan-9-yl)ethan-1-one], the Ki on JAK1 (setting [2]) was 0.1 to 1 nM; on JAK3, 10 to 31.6 nM; on JAK2 it was 0.1 to 1 nM; on Tyk2 it was 0.1 to 1 nM.
